Data from ChEMBL document CHEMBL5096192, “Recent advancements in anti-leishmanial research: Synthetic strategies and structural activity relationships” (Eur J Med Chem, 2021).

What was measured:
[1] = target: Trypanothione reductase (Leishmania donovani) (UniProt P39050); test: Inhibition of Leishmania donovani trypanothione reductase expressed in Escherichia coli BL21(DE3) using TS2 and NADPH as substrate at 100 uM preincubated for 5 mins followed by substrate addition by DTNB-reagent based spectrophotometric method
[2] = test system: Leishmania donovani; test: Antileishmanial activity against Leishmania donovani MHOM/IN/80/Dd8 intracellular amastigotes transfected with firefly luciferase gene infected in mouse J774.A1 cells assessed as parasite growth inhibition incubated for 96 hrs by Steady Glo reagent based luminescence assay; assay type: functional, organism-based; settings: MHOM/IN/80/Dd8, J774.A1, 96 h
[3] = test system: Leishmania infantum; test: Antileishmanial activity against Leishmania infantum MCAN/ES/92/BCN83 intracellular amastigotes infected in mouse J774 macrophages assessed as inhibition of parasite growth incubated for 48 hrs by fluorometric analysis; assay type: functional, organism-based; settings: MCAN/ES/92/BCN83, J774, 48 h
[4] = test system: Leishmania amazonensis; test: Antileishmanial activity against promastigote form of Leishmania amazonensis MHOM/BR/79/Maria assessed as inhibition of parasite growth measured after 48 hrs by resazurin staining based fluorescence analysis; assay type: functional, organism-based
[5] = test system: Leishmania infantum; test: Antileishmanial activity against promastigote form of Leishmania infantum MCAN/ES/92/BCN83 assessed as inhibition of parasite growth measured after 48 hrs by resazurin staining based fluorescence analysis; assay type: functional, organism-based; settings: MCAN/ES/92/BCN83, 48 h
[6] = test system: Leishmania amazonensis; test: Antileishmanial activity against Leishmania amazonensis MHOM/BR/79/Maria intracellular amastigotes infected in mouse J774 macrophages assessed as inhibition of parasite growth incubated for 48 hrs by fluorometric analysis; assay type: functional, organism-based; settings: J774, 48 h

Sequence of Trypanothione reductase (Leishmania donovani) (P39050 whole entry): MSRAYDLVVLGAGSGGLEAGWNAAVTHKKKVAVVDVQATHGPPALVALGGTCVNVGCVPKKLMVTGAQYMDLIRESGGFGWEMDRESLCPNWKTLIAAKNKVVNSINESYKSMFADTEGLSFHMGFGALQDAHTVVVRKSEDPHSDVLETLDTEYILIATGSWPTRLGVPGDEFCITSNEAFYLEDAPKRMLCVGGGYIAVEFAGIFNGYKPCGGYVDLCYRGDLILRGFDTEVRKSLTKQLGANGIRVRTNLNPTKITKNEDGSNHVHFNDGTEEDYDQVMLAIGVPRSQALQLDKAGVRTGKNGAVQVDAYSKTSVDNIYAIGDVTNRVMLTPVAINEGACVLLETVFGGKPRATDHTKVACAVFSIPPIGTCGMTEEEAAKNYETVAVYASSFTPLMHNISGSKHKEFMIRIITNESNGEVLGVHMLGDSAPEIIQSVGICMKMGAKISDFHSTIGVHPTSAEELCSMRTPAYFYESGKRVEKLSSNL

SMILES | inhibition [1] [%] | IC50 [2] [µM] | IC50 [3] [µM] | IC50 [4] [µM] | IC50 [5] [µM] | IC50 [6] [µM]
CCOC(=O)c1cc2c([nH]c3ccccc32)c(C(C(=O)NC(C)(C)C)N(Cc2ccc(CC)cc2)C(=O)c2ccccc2)n1 (stereo unspecified) | 87 | 2.43 | – | – | – | –
FC(F)(F)c1nc2cc(Cl)c(Cl)cc2[nH]1 | – | – | 15.8 | 4.11 | 8.63 | 9
